Measured values from patent US20190048016A1, “SUBSTITUTED BRIDGED UREA ANALOGS AS SIRTUIN MODULATORS” (GlaxoSmithKline Intellectual Property(No.2)Limited, priority 2014, published 2019).

Biological target: T1, SIRT1 (Homo sapiens, UniProt Q96EB6)
T1 sequence (Q96EB6 1-747): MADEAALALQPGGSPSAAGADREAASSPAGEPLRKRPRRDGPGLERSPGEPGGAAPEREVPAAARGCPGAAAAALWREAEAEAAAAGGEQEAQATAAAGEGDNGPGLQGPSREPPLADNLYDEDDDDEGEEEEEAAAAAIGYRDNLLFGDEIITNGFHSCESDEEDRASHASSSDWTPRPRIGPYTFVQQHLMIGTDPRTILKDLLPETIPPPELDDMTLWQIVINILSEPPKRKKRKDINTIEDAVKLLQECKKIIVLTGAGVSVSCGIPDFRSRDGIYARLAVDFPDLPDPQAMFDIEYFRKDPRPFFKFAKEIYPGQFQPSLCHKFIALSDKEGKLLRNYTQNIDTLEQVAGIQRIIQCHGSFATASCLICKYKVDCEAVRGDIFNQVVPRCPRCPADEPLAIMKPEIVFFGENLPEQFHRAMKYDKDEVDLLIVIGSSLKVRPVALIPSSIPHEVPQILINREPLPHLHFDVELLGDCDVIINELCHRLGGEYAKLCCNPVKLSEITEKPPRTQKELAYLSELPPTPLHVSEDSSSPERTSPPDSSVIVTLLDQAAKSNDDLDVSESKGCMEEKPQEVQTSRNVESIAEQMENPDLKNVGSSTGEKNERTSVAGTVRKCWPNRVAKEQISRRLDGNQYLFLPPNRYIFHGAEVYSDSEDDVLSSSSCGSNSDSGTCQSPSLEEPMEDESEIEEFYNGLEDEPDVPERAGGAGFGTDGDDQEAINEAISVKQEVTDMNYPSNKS
Test: Trp mass spectrometry assay of SIRT1 activation (deacetylation of Ac-R-H-K-K(Ac)-W-NH2 peptide, OAADPR formation)
Assay type: biochemical
Conditions: Trp peptide 0.5 μM, 120 μM βNAD+, 10 nM SIRT1, 25 min, 25° C.; for Emax: 25 min, read-out: TRP MAX RESP (percent maximum fold activation relative to control = 100%)
Text: Mass spectrometry based assays were used to identify modulators of SIRT1 activity. The TAMRA based assay utilized a peptide having 20 amino acid residues as follows: Ac-EE-K(biotin)-[…](Ac)NleSTEG-K(5TMR)-EE-NH2 (SEQ ID NO: 1), wherein K(Ac) is an acetylated lysine residue and Nle is a norleucine. The peptide was labeled with the fluorophore 5TMR (excitation 540 nm/emission 580 nm) at the C-terminus. The sequence of the peptide substrate was based on p53 with several modifications. In addition, the methionine residue naturally present in the sequence was replaced with the norleucine because the methionine may be susceptible to oxidation during synthesis and purification. The Trp based assay utilized a peptide having an amino acid residues as follows: Ac-R-H-K-K(Ac)-W-NH2 (SEQ ID NO: 2).
The Trp mass spectrometry assay was conducted as follows. 0.5 μM peptide substrate and 120 μM βNAD^+ were incubated with 10 nM SIRT1 for 25 minutes at 25° C. in a reaction buffer (50 mM HEPES pH 7.5, […], 1 mM DTT, 0.05% BSA). The SIRT1 protein was obtained by cloning the SirT1 gene into a T7-promoter containing vector, which was then expressed in BL21(DE3) bacterial cells and purified as described in further detail below. Test compound was added at varying concentrations to this reaction mixture and the resulting reactions were monitored. After the 25 minute incubation with SIRT1, 10 μL of 10% formic acid was added to stop the reaction. The resulting reactions were sealed and frozen for later mass spec analysis. The relative SIRT1 activity was then determined by measuring the amount of O-acetyl-ADP-ribose (OAADPR) formed (or, alternatively, the amount of deacetylated Trp peptide generated) by the NAD-dependent sirtuin deacetylation reaction in the presence of varying concentrations of the test compound versus control reactions lacking the test compound. The degree to which the test agent activated deacetylation by SIRT1 was expressed as EC1.5 (i.e., the concentration of compound required to increase SIRT1 activity by 50% over the control lacking test compound), and Percent Maximum Activation (i.e., the maximum activity relative to control (100%) obtained for the test compound).
A control for inhibition of sirtuin activity was conducted by adding 1 μL of 500 mM nicotinamide as a negative control at the start of the reaction (e.g., permits determination of maximum sirtuin inhibition). A control for activation of sirtuin activity was conducted using 10 nM of sirtuin protein, with 1 μL of DMSO in place of compound, to determine the amount of deacetylation of the substrate at a given time point within the linear range of the assay. This time point was the same as that used for test compounds and, within the linear range, the endpoint represents a change in velocity.
For the above assay, SIRT1 protein was expressed and purified as follows. The SirT1 gene was cloned into a T7-promoter containing vector and transformed into BL21(DE3). The protein was expressed by induction with 1 mM IPTG as an N-terminal His-tag fusion protein at 18° C. overnight and harvested at 30,000×g. Cells were lysed with lysozyme in lysis buffer (50 mM Tris-HCl, 2 mM Tris[2-carboxyethyl] phosphine (TCEP), 10 μM ZnCl2, 200 mM NaCl) and further treated with sonication for 10 min for complete lysis. The protein was purified over a Ni-NTA column (Amersham) and fractions containing pure protein were pooled, concentrated and run over a sizing column (Sephadex S200 26/60 global). The peak containing soluble protein was collected and run on an Ion-exchange column (MonoQ). Gradient elution (200 mM-500 mM NaCl) yielded pure protein. This protein was concentrated and dialyzed against dialysis buffer (20 mM Tris-HCl, 2 mM TCEP) overnight. The protein was aliquoted and frozen at −80° C. until further use.
Sirtuin-modulating compounds of Formula (I) that activated SIRT1 were identified using the assay described above and are shown below in Table 1. […]

Emax [%]	TRP Activity (EC1.5, concentration of compound required to increase SIRT1 activity by 50% over control)	Structure (SMILES)
≥ 150	A (EC1.5<1 μM)	O=C(Nc1ncc(OC[C@H](O)CO)cn1)N1c2nc(-c3cccc(C(F)(F)F)c3)c(Cl)cc2N2CCC[C@H]1C2 [Example 89, (9S)-3-chloro-N-(5-((R)-2,3-dihydroxypropoxy)pyrimidin-2-yl)-2-(3-(trifluoromethyl)phenyl)-8,9-dihydro-6H-5,9-methanopyrido[2,3-b][1,4]diazocine-10(7H)-carboxamide]
≥ 150		Cc1cc(-c2nc3c(cc2Cl)N2CCC[C@@H](C2)N3C(=O)Nc2cccnc2)ccn1 [Example 66, (9S)-3-chloro-2-(2-methylpyridin-4-yl)-N-(pyridin-3-yl)-8,9-dihydro-6H-5,9-methanopyrido[2,3-b][1,4]diazocine-10(7H)-carboxamide]
≥ 150	A (EC1.5<1 μM)	O=C(Nc1cncc(OC[C@@H](O)CO)c1)N1c2nc(-c3cccc(C(F)(F)F)c3)c(Cl)cc2N2CCC[C@H]1C2 [Example 80, (9S)-3-chloro-N-(5-((S)-2,3-dihydroxypropoxy)pyridin-3-yl)-2-(3-(trifluoromethyl)phenyl)-8,9-dihydro-6H-5,9-methanopyrido[2,3-b][1,4]diazocine-10(7H)-carboxamide]

The remaining lines, values behind:

Structure (SMILES)	Emax [%]	TRP Activity (EC1.5, concentration of compound required to increase SIRT1 activity by 50% over control)
C[C@@H](NC(=O)c1ccc2c(n1)N(C(=O)Nc1ccc(OC[C@@H](O)CO)cn1)[C@H]1CCCN2C1)C(F)(F)F [Example 54, (9S)-N10-(5-((S)-2,3-dihydroxypropoxy)pyridin-2-yl)-N2-((R)-1,1,1-trifluoropropan-2-yl)-8,9-dihydro-6H-5,9-methanopyrido[2,3-b][1,4]diazocine-2,10(7H)-dicarboxamide]	≥ 150	A (EC1.5<1 μM)
Cc1cc(-c2ccc3c(n2)N(C(=O)Nc2ccc4nn(C)cc4c2)[C@H]2CCCN3C2)ccn1 [Example 15, (9S)-N-(2-methyl-2H-indazol-5-yl)-2-(2-methylpyridin-4-yl)-8,9-dihydro-6H-5,9-methanopyrido[2,3-b][1,4]diazocine-10(7H)-carboxamide]	≥ 150	A (EC1.5<1 μM)
Cc1cc(-c2ccc3c(n2)N(C(=O)Nc2ccncn2)[C@H]2CCCN3C2)ccn1 [Example 12, (9S)-2-(2-methylpyridin-4-yl)-N-(pyrimidin-4-yl)-8,9-dihydro-6H-5,9-methanopyrido[2,3-b][1,4]diazocine-10(7H)-carboxamide]	≥ 150	A (EC1.5<1 μM)
O=C(Nc1cnccn1)c1cc2c(nc1N1CCCC(C(F)(F)F)C1)N[C@H]1CCCN2C1 (single isomer, unassigned) [Example 59]	≤ 150	
O=C(Nc1cnccn1)N1c2nc(N3CCCC(C(F)(F)F)C3)ccc2N2CCC[C@H]1C2 (single isomer, unassigned) [Example 30]	≥ 150	A (EC1.5<1 μM)
Cc1cc(C(=O)N[C@H](C)C(F)(F)F)nc2c1N1CCC[C@@H](C1)N2C(=O)Nc1ccc(OC[C@@H](O)CO)cn1 [Example 56, (9S)-N10-(5-((S)-2,3-dihydroxypropoxy)pyridin-2-yl)-4-methyl-N2-((R)-1,1,1-trifluoropropan-2-yl)-8,9-dihydro-6H-5,9-methanopyrido[2,3-b][1,4]diazocine-2,10(7H)-dicarboxamide]	≥ 150	A (EC1.5<1 μM)
Cc1ccc2c(NC(=O)N3c4nc(C(=O)NC(CO)C(F)(F)F)ccc4N4CCC[C@H]3C4)n[nH]c2n1 (single isomer, unassigned) [Example 45]	≥ 150	B (EC1.5 1-25 μM)
